The test addresses T1, human IKK-2 (rhIKK-2 homodimer) (Homo sapiens, UniProt O14920).
T1 construct: FLAG (DYKDDDDKD) (C); made in house; host or cells: insect cells (baculovirus, pFastBac)
T1 sequence (O14920 1-756): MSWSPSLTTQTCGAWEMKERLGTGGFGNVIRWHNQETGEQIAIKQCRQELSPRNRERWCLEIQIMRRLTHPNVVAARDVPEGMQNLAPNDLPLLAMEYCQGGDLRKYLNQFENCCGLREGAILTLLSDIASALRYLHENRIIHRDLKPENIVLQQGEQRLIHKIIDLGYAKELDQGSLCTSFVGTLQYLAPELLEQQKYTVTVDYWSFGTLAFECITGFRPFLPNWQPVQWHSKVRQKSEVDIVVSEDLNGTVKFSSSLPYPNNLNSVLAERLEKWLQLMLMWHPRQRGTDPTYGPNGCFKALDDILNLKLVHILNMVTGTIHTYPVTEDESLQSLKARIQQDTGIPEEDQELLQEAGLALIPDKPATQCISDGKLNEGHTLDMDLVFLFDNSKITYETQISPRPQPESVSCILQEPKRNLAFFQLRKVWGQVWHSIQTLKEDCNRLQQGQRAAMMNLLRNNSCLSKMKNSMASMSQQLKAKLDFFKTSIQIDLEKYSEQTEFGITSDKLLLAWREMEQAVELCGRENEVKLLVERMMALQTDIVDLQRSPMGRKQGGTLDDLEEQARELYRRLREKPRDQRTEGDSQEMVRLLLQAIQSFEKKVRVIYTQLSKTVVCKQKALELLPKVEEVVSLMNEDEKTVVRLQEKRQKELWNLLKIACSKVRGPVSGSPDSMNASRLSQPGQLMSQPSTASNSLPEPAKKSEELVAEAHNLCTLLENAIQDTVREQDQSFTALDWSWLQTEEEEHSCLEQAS
Nature of the test: IKK-2 Resin Enzyme Assay (Human IKK-2 Enzyme Assay). It counts as biochemical. The following applies: human IKK-2, resin enzyme assay; read-out: IC50 (μM) hIKK-2. A digest of the protocol:
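C-terminally FLAG-tagged human IKK-2 homodimer, baculovirus-expressed in insect cells and anti-FLAG purified. Reaction mix: 5 μM biotinylated IκBα peptide (Ser32/Ser36 region), 1 μM ATP with [γ-33P]ATP, 2 mM MgCl2, 2 mM MnCl2, 10 mM NaF, 1 mM DTT, 25 mM HEPES pH 7.6. Incubated 30 min at 25 °C; IC50 derived.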
For `CCN(CC)C(=O)c1ccc(-c2ccc(-n3cc(NC(N)=O)c(C(N)=O)n3)cc2)cc1` [Example 143, 4-[(aminocarbonyl)amino]-1-{4′-[(diethylamino)carbonyl]-1,1′-biphenyl-4-yl}-1H-pyrazole-3-carboxamide], the IC50 (as a rule, the point on the concentration scale where inhibition reaches its midpoint) stood at 3.31 µM.
Regarding `CCOC(=O)c1cccc(-c2ccc(-n3cc(NC(N)=O)c(C(N)=O)n3)cc2)c1` [Example 144, ethyl 4′-{3-(aminocarbonyl)-4-[(aminocarbonyl)amino]-1H-pyrazol-1-yl}-1,1′-biphenyl-3-carboxylate], the half-inhibitory concentration (IC50) was found to be 5.05 µM.
To `CNC(=O)c1ccc(-c2ccc(-n3cc(NC(N)=O)c(C(N)=O)n3)cc2)cc1` [Example 145, 4-[(aminocarbonyl)amino]-1-{4′-[(methylamino)carbonyl]-1,1′-biphenyl-4-yl}-1H-pyrazole-3-carboxamide] belongs 0.24 µM; to `CCCNC(=O)c1ccc(-c2ccc(-n3cc(NC(N)=O)c(C(N)=O)n3)cc2)cc1` [Example 146, 4-[(aminocarbonyl)amino]-1-{4′-[(propylamino)carbonyl]-1,1′-biphenyl-4-yl}-1H-pyrazole-3-carboxamide], 6.28 µM.
Consider `CCOC(=O)c1ccc(-c2ccc(-n3cc(NC(N)=O)c(C(N)=O)n3)cc2)cc1` [Example 147, ethyl 4′-{3-(aminocarbonyl)-4-[(aminocarbonyl)amino]-1H-pyrazol-1-yl}-1,1′-biphenyl-4-carboxylate], for which the IC50 is 6.01 µM.
To `CC(C)NC(=O)c1cccc(-c2ccc(-n3cc(NC(N)=O)c(C(N)=O)n3)cc2)c1` [Example 148, 4-[(aminocarbonyl)amino]-1-{3′-[(isopropylamino)carbonyl]-1,1′-biphenyl-4-yl}-1H-pyrazole-3-carboxamide] belongs 7.14 µM.
In the case of `NC(=O)Nc1cn(-c2ccc(-c3ccc(C(N)=O)cc3)cc2)nc1C(N)=O` [Example 149, 4-[(aminocarbonyl)amino]-1-[4′-(aminocarbonyl)-1,1′-biphenyl-4-yl]-1H-pyrazole-3-carboxamide] it was 0.05 µM; in that of `COc1ccc(CNC(=O)c2ccc(-c3ccc(-n4cc(NC(N)=O)c(C(N)=O)n4)cc3)cc2F)cc1` [Example 150, 4-[(aminocarbonyl)amino]-1-(3′-fluoro-4′-{[(4-methoxybenzyl)amino]carbonyl}-1,1′-biphenyl-4-yl)-1H-pyrazole-3-carboxamide], 0.63 µM; in that of `NC(=O)Nc1cn(-c2ccc(-c3ccc(C(=O)NCc4ccccc4)c(F)c3)cc2)nc1C(N)=O` [Example 151, 4-[(aminocarbonyl)amino]-1-{4′-[(benzylamino)carbonyl]-3′-fluoro-1,1′-biphenyl-4-yl}-1H-pyrazole-3-carboxamide], 0.31 µM.
In the case of `CNC(=O)c1ccc(-c2ccc(-n3cc(NC(N)=O)c(C(N)=O)n3)cc2)cc1F` [Example 152, 4-[(aminocarbonyl)amino]-1-{3′-fluoro-4′-[(methylamino)carbonyl]-1,1′-biphenyl-4-yl}-1H-pyrazole-3-carboxamide] it was 0.11 µM.
In the case of `COc1cccc(CNC(=O)c2ccc(-c3ccc(-n4cc(NC(N)=O)c(C(N)=O)n4)cc3)cc2F)c1` [Example 153, 4-[(aminocarbonyl)amino]-1-(3′-fluoro-4′-{[(3-methoxybenzyl)amino]carbonyl}-1,1′-biphenyl-4-yl)-1H-pyrazole-3-carboxamide], the IC50 is 0.32 µM.
To `COc1ccccc1CNC(=O)c1ccc(-c2ccc(-n3cc(NC(N)=O)c(C(N)=O)n3)cc2)cc1F` [Example 154, 4-[(aminocarbonyl)amino]-1-(3′-fluoro-4′-{[(2-methoxybenzyl)amino]carbonyl}-1,1′-biphenyl-4-yl)-1H-pyrazole-3-carboxamide] belongs 0.26 µM.
Turning to `NC(=O)Nc1cn(-c2ccc(-c3ccc(C(=O)NCc4ccc(F)cc4)c(F)c3)cc2)nc1C(N)=O` [Example 155, 4-[(aminocarbonyl)amino]-1-(3′-fluoro-4′-{[(4-fluorobenzyl)amino]carbonyl}-1,1′-biphenyl-4-yl)-1H-pyrazole-3-carboxamide], the IC50 stood at 0.45 µM.
In the case of `NC(=O)Nc1cn(-c2ccc(-c3ccc(C(=O)NCc4cccc(F)c4)c(F)c3)cc2)nc1C(N)=O` [Example 156, 4-[(aminocarbonyl)amino]-1-(3′-fluoro-4′-{[(3-fluorobenzyl)amino]carbonyl}-1,1′-biphenyl-4-yl)-1H-pyrazole-3-carboxamide] it was 0.61 µM.
To `NC(=O)Nc1cn(-c2ccc(-c3ccc(C(=O)NCc4ccccc4F)c(F)c3)cc2)nc1C(N)=O` [Example 157, 4-[(aminocarbonyl)amino]-1-(3′-fluoro-4′-{[(2-fluorobenzyl)amino]carbonyl}-1,1′-biphenyl-4-yl)-1H-pyrazole-3-carboxamide] belongs 8.08 µM; to `CN(Cc1ccc(F)cc1)C(=O)c1ccc(-c2ccc(-n3cc(NC(N)=O)c(C(N)=O)n3)cc2)cc1F` [Example 158, 4-[(aminocarbonyl)amino]-1-(3′-fluoro-4′-{[(4-fluorobenzyl)(methyl)amino]carbonyl}-1,1′-biphenyl-4-yl)-1H-pyrazole-3-carboxamide], 4.04 µM.
As to `NC(=O)Nc1cn(-c2ccc(-c3ccc(C(=O)NC4CCCc5ccccc54)c(F)c3)cc2)nc1C(N)=O` (stereo not shown) [Example 159, 4-[(aminocarbonyl)amino]-1-{3′-fluoro-4′-[(1,2,3,4-tetrahydronaphthalen-1-ylamino)carbonyl]-1,1′-biphenyl-4-yl}-1H-pyrazole-3-carboxamide], the IC50 turned out to be 5.97 µM.
As for `NC(=O)Nc1cn(-c2ccc(-c3cc(F)ccc3OCC(=O)N3CCOCC3)cc2)nc1C(N)=O` [Example 161, 4-[(aminocarbonyl)amino]-1-[5′-fluoro-2′-(2-morpholin-4-yl-2-oxoethoxy)-1,1′-biphenyl-4-yl]-1H-pyrazole-3-carboxamide], the IC50 is 1.36 µM.
As for `CC(=O)OCc1cccc(-c2ccc(-n3cc(NC(N)=O)c(C(N)=O)n3)cc2)c1` [Example 165, 4′-{3-(aminocarbonyl)-4-[(aminocarbonyl)amino]-1H-pyrazol-1-yl}-1,1′-biphenyl-3-yl)methyl acetate], the 50% inhibitory concentration (IC50) came out at 5.99 µM.
To `N#CCOc1cccc(-c2ccc(-n3cc(NC(N)=O)c(C(N)=O)n3)cc2)c1` [Example 166, 4-[(aminocarbonyl)amino]-1-[3′-(cyanomethoxy)-1,1′-biphenyl-4-yl]-1H-pyrazole-3-carboxamide] belongs 0.38 µM; to `N#CCOc1ccccc1-c1ccc(-n2cc(NC(N)=O)c(C(N)=O)n2)cc1` [Example 167, 4-[(aminocarbonyl)amino]-1-[2′-(cyanomethoxy)-1,1′-biphenyl-4-yl]-1H-pyrazole-3-carboxamide], 0.5 µM; to `NC(=O)Nc1cn(-c2ccc(-c3cccc(OCc4ccccn4)c3)cc2)nc1C(N)=O` [Example 168, 4-[(aminocarbonyl)amino]-1-[3′-(pyridin-2-ylmethoxy)-1,1′-biphenyl-4-yl]-1H-pyrazole-3-carboxamide], 1.99 µM.
To `CC(C#N)Oc1cccc(-c2ccc(-n3cc(NC(N)=O)c(C(N)=O)n3)cc2)c1` (stereo not shown) [Example 169, 4-[(aminocarbonyl)amino]-1-[3′-(1-cyanoethoxy)-1,1′-biphenyl-4-yl]-1H-pyrazole-3-carboxamide] belongs 1.83 µM; to `NC(=O)Nc1cn(-c2ccc(-c3cccc(OCc4cccnc4)c3)cc2)nc1C(N)=O` [Example 170, 4-[(aminocarbonyl)amino]-1-[3′-(pyridin-3-ylmethoxy)-1,1′-biphenyl-4-yl]-1H-pyrazole-3-carboxamide], 1.58 µM.
As for `NC(=O)Nc1cn(-c2ccc(-c3cccc(OCc4ccncc4)c3)cc2)nc1C(N)=O` [Example 171, 4-[(aminocarbonyl)amino]-1-[3′-(pyridin-4-ylmethoxy)-1,1′-biphenyl-4-yl]-1H-pyrazole-3-carboxamide], the IC50 stood at 6.84 µM.
To `N#CCOc1ccccc1-c1cccc(-n2cc(NC(N)=O)c(C(N)=O)n2)c1` [Example 176, 4-[(aminocarbonyl)amino]-1-[2′-(cyanomethoxy)-1,1′-biphenyl-3-yl]-1H-pyrazole-3-carboxamide] belongs 0.18 µM; to `N#CCOc1cccc(-c2ccc(-n3cc(NC(N)=O)c(C(N)=O)n3)c(F)c2)c1` [Example 179, 4-[(aminocarbonyl)amino]-1-[3′-(cyanomethoxy)-3-fluoro-1,1′-biphenyl-4-yl]-1H-pyrazole-3-carboxamide], 0.51 µM.
To `CC(C#N)Oc1ccc(F)cc1-c1ccc(-n2cc(NC(N)=O)c(C(N)=O)n2)cc1` (stereo not shown) [Example 180, 4-[(aminocarbonyl)amino]-1-[2′-(1-cyanoethoxy)-5′-fluoro-1,1′-biphenyl-4-yl]-1H-pyrazole-3-carboxamide] belongs 0.228 µM.

The record behind these values is patent publication US20050197338A1, “Substituted pyrazole urea compounds for the treatment of inflammation” (priority 2003, published 2005).
